Test results taken from article PMC5218480 (PLoS ONE, 2017).

Test system: MV-4-11 cells
Assay: Gene expression microarray analysis (Affymetrix PrimeView) and GSEA
Assay type: cell-based, human
Design: RFU PODN (11730768_x_at) / Fold change /veh PODN (11730768_x_at) / RFU LINC00158 (11744669_a_at) / Fold change /veh LINC00158 (11744669_a_at) / RFU DUSP10 (11751237_a_at) / Fold change /veh DUSP10 (11751237_a_at) / RFU ID3 (11757404_x_at) / Fold change /veh ID3 (11757404_x_at) / RFU PLEKHG5 (11737974_s_at) / Fold change /veh PLEKHG5 (11737974_s_at) / RFU LRRC4B (11730491_at) / Fold change /veh LRRC4B (11730491_at) / RFU GIMAP4 (11747438_a_at) / Fold change /veh GIMAP4 (11747438_a_at) / RFU KRT8 (11758183_x_at) / Fold change /veh KRT8 (11758183_x_at) / RFU CNN1 (11734310_a_at) / Fold change /veh CNN1 (11734310_a_at) / RFU VPS37D (11726825_at) / Fold change /veh VPS37D (11726825_at) / RFU C10orf10 (11716522_x_at) / Fold change /veh C10orf10 (11716522_x_at) / RFU KIR2DL2 /// KIR2DL4 /// KIR2DL5A /// KIR2DL5B /// KIR2DS1 /// KIR2DS2 /// KIR2DS3 /// KIR2DS4 /// KIR3DL3 /// KIR3DL3 /// KIR3DS1 (11738374_at) / Fold change /veh KIR2DL2 /// KIR2DL4 /// KIR2DL5A /// KIR2DL5B /// KIR2DS1 /// KIR2DS2 /// KIR2DS3 /// KIR2DS4 /// KIR3DL3 /// KIR3DL3 /// KIR3DS1 (11738374_at) / RFU C1QL1 (11718748_at) / Fold change /veh C1QL1 (11718748_at) / RFU TMPRSS4 (11747572_a_at) / Fold change /veh TMPRSS4 (11747572_a_at) / RFU HAMP (11756126_x_at) / Fold change /veh HAMP (11756126_x_at) / RFU RNFT2 (11725882_a_at) / Fold change /veh RNFT2 (11725882_a_at) / RFU NR4A2 (11747474_a_at) / Fold change /veh NR4A2 (11747474_a_at) / RFU ABCC12 (11746883_a_at) / Fold change /veh ABCC12 (11746883_a_at) / RFU TMEM136 (11760407_x_at) / Fold change /veh TMEM136 (11760407_x_at) / RFU CLDN22 /// WWC2 (11732394_at) / Fold change /veh CLDN22 /// WWC2 (11732394_at) / RFU HLA-DPB1 (11760878_x_at) / Fold change /veh HLA-DPB1 (11760878_x_at) / RFU SPINT1 (11716480_a_at) / Fold change /veh SPINT1 (11716480_a_at) / RFU GAP43 (11754022_s_at) / Fold change /veh GAP43 (11754022_s_at) / RFU A4GNT (11735810_at) / Fold change /veh A4GNT (11735810_at) / RFU PRB3 (11715151_x_at) / Fold change /veh PRB3 (11715151_x_at) / RFU TUBB4B (11761932_at) / Fold change /veh TUBB4B (11761932_at) / RFU CAPN14 (11732068_a_at) / Fold change /veh CAPN14 (11732068_a_at) / RFU TMCC2 (11721928_a_at) / Fold change /veh TMCC2 (11721928_a_at) / RFU IRGQ (11745062_a_at) / Fold change /veh IRGQ (11745062_a_at) / RFU FAM174B (11720279_a_at) / Fold change /veh FAM174B (11720279_a_at) / RFU TMPRSS4 (11748680_a_at) / Fold change /veh TMPRSS4 (11748680_a_at) / RFU FAM212B (11763350_a_at) / Fold change /veh FAM212B (11763350_a_at) / RFU PLEKHG5 (11743358_a_at) / Fold change /veh PLEKHG5 (11743358_a_at) / RFU ZSCAN30 (11745921_a_at) / Fold change /veh ZSCAN30 (11745921_a_at) / RFU CMKLR1 (11741424_a_at) / Fold change /veh CMKLR1 (11741424_a_at) / RFU LOC101060620 /// MAPK8IP1 (11723275_at) / Fold change /veh LOC101060620 /// MAPK8IP1 (11723275_at) / RFU SPTSSB (11747773_x_at) / Fold change /veh SPTSSB (11747773_x_at) / RFU PRSS12 (11739890_at) / Fold change /veh PRSS12 (11739890_at) / RFU BIN1 (11741810_x_at) / Fold change /veh BIN1 (11741810_x_at) / RFU WNT11 (11732464_a_at) / Fold change /veh WNT11 (11732464_a_at) / RFU C10orf10 (11716521_a_at) / Fold change /veh C10orf10 (11716521_a_at) / RFU C5orf56 (11738089_at) / Fold change /veh C5orf56 (11738089_at) / RFU CYB561 (11721691_x_at) / Fold change /veh CYB561 (11721691_x_at) / RFU ANKRD19P (11752326_a_at) / Fold change /veh ANKRD19P (11752326_a_at) / RFU OR2T12 /// OR2T33 /// OR2T8 (11738714_s_at) / Fold change /veh OR2T12 /// OR2T33 /// OR2T8 (11738714_s_at) / RFU VCAN (11748164_a_at) / Fold change /veh VCAN (11748164_a_at) / RFU JSRP1 (11732532_at) / Fold change /veh JSRP1 (11732532_at) / RFU KRTAP10-11 (11738290_x_at) / Fold change /veh KRTAP10-11 (11738290_x_at) / RFU MYO3A (11730013_a_at) / Fold change /veh MYO3A (11730013_a_at) / RFU EBF3 (11725865_a_at) / Fold change /veh EBF3 (11725865_a_at) / RFU CAMK2N1 (11719241_x_at) / Fold change /veh CAMK2N1 (11719241_x_at) / RFU C5orf56 (11738088_a_at) / Fold change /veh C5orf56 (11738088_a_at) / RFU OLFML3 (11715873_a_at) / Fold change /veh OLFML3 (11715873_a_at) / RFU LOC100653217 /// NTM (11731650_a_at) / Fold change /veh LOC100653217 /// NTM (11731650_a_at) / RFU MAPK11 (11762145_a_at) / Fold change /veh MAPK11 (11762145_a_at) / RFU FIZ1 (11724087_x_at) / Fold change /veh FIZ1 (11724087_x_at) / RFU OASL (11726364_x_at) / Fold change /veh OASL (11726364_x_at) / RFU SOX15 (11748057_x_at) / Fold change /veh SOX15 (11748057_x_at) / RFU CD79A (11719716_a_at) / Fold change /veh CD79A (11719716_a_at) / RFU HIST1H1D (11736915_at) / Fold change /veh HIST1H1D (11736915_at) / RFU CASKIN2 (11723855_a_at) / Fold change /veh CASKIN2 (11723855_a_at) / RFU LOC730098 (11760151_x_at) / Fold change /veh LOC730098 (11760151_x_at) / RFU OR4N2 (11742367_at) / Fold change /veh OR4N2 (11742367_at) / RFU PRRT2 (11749266_a_at) / Fold change /veh PRRT2 (11749266_a_at) / RFU SNX32 (11753110_a_at) / Fold change /veh SNX32 (11753110_a_at) / RFU CDHR5 (11726645_a_at) / Fold change /veh CDHR5 (11726645_a_at) / RFU RCAN1 (11760418_a_at) / Fold change /veh RCAN1 (11760418_a_at) / RFU FAM167A (11723789_a_at) / Fold change /veh FAM167A (11723789_a_at) / RFU FAM26E (11764081_at) / Fold change /veh FAM26E (11764081_at) / RFU ISYNA1 (11749810_s_at) / Fold change /veh ISYNA1 (11749810_s_at) / RFU ACY1 (11761880_at) / Fold change /veh ACY1 (11761880_at) / RFU 11764098_at / Fold change /veh 11764098_at / RFU SAMD14 (11745864_x_at) / Fold change /veh SAMD14 (11745864_x_at) / RFU NPB (11741838_a_at) / Fold change /veh NPB (11741838_a_at) / RFU TMPRSS6 (11731388_a_at) / Fold change /veh TMPRSS6 (11731388_a_at) / RFU KRTAP10-2 (11738614_at) / Fold change /veh KRTAP10-2 (11738614_at) / RFU ARHGAP8 /// PRR5-ARHGAP8 (11727945_x_at) / Fold change /veh ARHGAP8 /// PRR5-ARHGAP8 (11727945_x_at) / RFU KRTAP5-7 /// NADSYN1 (11734609_at) / Fold change /veh KRTAP5-7 /// NADSYN1 (11734609_at) / RFU RASL12 (11751679_a_at) / Fold change /veh RASL12 (11751679_a_at) / RFU CDKN2B (11736163_a_at) / Fold change /veh CDKN2B (11736163_a_at) / RFU PRF1 (11729649_at) / Fold change /veh PRF1 (11729649_at) / RFU, ZNF638 /// ZNF638-IT1 / Fold change vs veh, ZNF638 /// ZNF638-IT1 / RFU, PANK3 / Fold change vs veh, PANK3 / RFU, SH3YL1 / Fold change vs veh, SH3YL1 / RFU, ZEB2 / Fold change vs veh, ZEB2 / RFU, NRIP1 / Fold change vs veh, NRIP1 / RFU, PTTG1IP / Fold change vs veh, PTTG1IP / RFU, CAPN2 / Fold change vs veh, CAPN2 / RFU, MED14 / Fold change vs veh, MED14 / RFU, SNORA58 / Fold change vs veh, SNORA58 / RFU, C1orf63 / Fold change vs veh, C1orf63 / RFU, LRRFIP1 / Fold change vs veh, LRRFIP1 / RFU, NDUFAF7 / Fold change vs veh, NDUFAF7 / RFU, SLC12A2 / Fold change vs veh, SLC12A2 / RFU, IBTK / Fold change vs veh, IBTK / RFU, ESF1 / Fold change vs veh, ESF1 / Fold change vs veh, TMEM50B / RFU, TAOK1 / Fold change vs veh, TAOK1 / RFU, ACBD3 / Fold change vs veh, ACBD3 / RFU, TMA16 / Fold change vs veh, TMA16 / RFU, RWDD3 / Fold change vs veh, RWDD3 / RFU, BCAT1 / Fold change vs veh, BCAT1 / RFU, EDEM3 / Fold change vs veh, EDEM3 / RFU, TMEM33 / Fold change vs veh, TMEM33 / RFU, WDR75 / Fold change vs veh, WDR75 / RFU, AHCTF1 / Fold change vs veh, AHCTF1 / RFU, TFRC / Fold change vs veh, TFRC / RFU, ZDHHC17 / Fold change vs veh, ZDHHC17 / RFU, NOM1 / Fold change vs veh, NOM1 / RFU, ARL8B / Fold change vs veh, ARL8B / RFU, ZBTB11 / Fold change vs veh, ZBTB11 / RFU, TAMM41 / Fold change vs veh, TAMM41 / RFU, KIAA1704 /// LOC100996395 / Fold change vs veh, KIAA1704 /// LOC100996395 / RFU, ING1 / Fold change vs veh, ING1 / RFU, TRMT61B / Fold change vs veh, TRMT61B / RFU, FUBP3 / Fold change vs veh, FUBP3 / RFU, TP53 / Fold change vs veh, TP53 / RFU, TNKS2 / Fold change vs veh, TNKS2 / RFU, ZFP14 / Fold change vs veh, ZFP14 / RFU, ACTR2 / Fold change vs veh, ACTR2 / RFU, PPP3R1 / Fold change vs veh, PPP3R1 / RFU, PIK3R1 / Fold change vs veh, PIK3R1 / RFU, HNRNPA1 / Fold change vs veh, HNRNPA1 / RFU, RNF170 / Fold change vs veh, RNF170 / RFU, ZNF28 / Fold change vs veh, ZNF28 / RFU, RNGTT / Fold change vs veh, RNGTT / RFU, OGT / Fold change vs veh, OGT / RFU, BRD1 / Fold change vs veh, BRD1 / RFU, MARS / Fold change vs veh, MARS / RFU, ZNF655 / Fold change vs veh, ZNF655 / RFU, FAHD1 / Fold change vs veh, FAHD1 / RFU, BDP1 / Fold change vs veh, BDP1 / RFU, LRRCC1 / Fold change vs veh, LRRCC1 / RFU, ARID1A / Fold change vs veh, ARID1A / RFU, ZNF146 / Fold change vs veh, ZNF146 / RFU, ZNF330 / Fold change vs veh, ZNF330 / RFU, GPN3 / Fold change vs veh, GPN3 / RFU, C9orf123 / Fold change vs veh, C9orf123 / RFU, N4BP2L2 / Fold change vs veh, N4BP2L2 / RFU, ARFIP1 / Fold change vs veh, ARFIP1 / RFU, FAM179B / Fold change vs veh, FAM179B / RFU, BCL10 / Fold change vs veh, BCL10 / RFU, UHRF1BP1L / Fold change vs veh, UHRF1BP1L / RFU, BET1 / Fold change vs veh, BET1 / RFU, CNOT2 / Fold change vs veh, CNOT2 / RFU, ZNF268 / Fold change vs veh, ZNF268 / Fold change vs veh, ZNF507 / RFU, DGCR2 / Fold change vs veh, DGCR2 / RFU, WDSUB1 / Fold change vs veh, WDSUB1 / Fold change vs veh, HSP90B1 /// MIR3652 / RFU, ADSS / Fold change vs veh, ADSS / RFU, GK / Fold change vs veh, GK / RFU, ZNF148 / Fold change vs veh, ZNF148 / RFU, TAF9 / Fold change vs veh, TAF9 / RFU, SLC1A5 / Fold change vs veh, SLC1A5 / RFU, SLMO2 / Fold change vs veh, SLMO2 / RFU, ABCC4 / Fold change vs veh, ABCC4 / RFU, LOC101060439 /// RAP1B / Fold change vs veh, LOC101060439 /// RAP1B / RFU, RFX7 / Fold change vs veh, RFX7 / RFU, GTPBP10 / Fold change vs veh, GTPBP10 / RFU, CNEP1R1 / Fold change vs veh, CNEP1R1 / RFU, BIVM-ERCC5 /// ERCC5 / Fold change vs veh, BIVM-ERCC5 /// ERCC5 / RFU, ILF3 / Fold change vs veh, ILF3 / RFU 11762660_at / Fold change /veh 11762660_at / RFU VCAN (11757783_s_at) / Fold change /veh VCAN (11757783_s_at) / RFU DDX43 (11728927_at) / Fold change /veh DDX43 (11728927_at) / RFU KRT8 (11758188_x_at) / Fold change /veh KRT8 (11758188_x_at) / RFU NKD1 (11759106_at) / Fold change /veh NKD1 (11759106_at) / RFU SRD5A1 (11742802_a_at) / Fold change /veh SRD5A1 (11742802_a_at) / RFU TPSAB1 /// TPSB2 (11721975_s_at) / Fold change /veh TPSAB1 /// TPSB2 (11721975_s_at) / RFU GSTM3 (11746129_a_at) / Fold change /veh GSTM3 (11746129_a_at) / RFU IL23R (11737362_x_at) / Fold change /veh IL23R (11737362_x_at) / RFU TMEM51 (11727254_a_at) / Fold change /veh TMEM51 (11727254_a_at) / RFU PIWIL2 (11732686_x_at) / Fold change /veh PIWIL2 (11732686_x_at) / RFU ORM1 (11744905_x_at) / Fold change /veh ORM1 (11744905_x_at) / RFU CCDC152 (11743942_at) / Fold change /veh CCDC152 (11743942_at) / RFU ECM1 (11717891_a_at) / Fold change /veh ECM1 (11717891_a_at) / RFU IL23R (11748794_a_at) / Fold change /veh IL23R (11748794_a_at) / RFU TNFAIP8L3 (11732012_x_at) / Fold change /veh TNFAIP8L3 (11732012_x_at) / RFU MBOAT4 (11741988_at) / Fold change /veh MBOAT4 (11741988_at) / RFU 11764193_at / Fold change /veh 11764193_at / RFU TMEM53 (11763286_at) / Fold change /veh TMEM53 (11763286_at) / RFU MAGEB2 (11727129_at) / Fold change /veh MAGEB2 (11727129_at) / RFU TMEM200A (11744735_a_at) / Fold change /veh TMEM200A (11744735_a_at) / RFU CCDC152 (11751479_a_at) / Fold change /veh CCDC152 (11751479_a_at) / RFU FAM211A (11726209_a_at) / Fold change /veh FAM211A (11726209_a_at) / RFU RGS16 (11746705_a_at) / Fold change /veh RGS16 (11746705_a_at) / RFU VCAN (11755009_s_at) / Fold change /veh VCAN (11755009_s_at) / RFU RHOB (11743442_s_at) / Fold change /veh RHOB (11743442_s_at) / RFU RGS16 (11720943_a_at) / Fold change /veh RGS16 (11720943_a_at) / RFU RGS16 (11720944_at) / Fold change /veh RGS16 (11720944_at) / RFU, VPS4B / Fold change vs veh, VPS4B / RFU, CREB1 / Fold change vs veh, CREB1 / RFU, DNAJC13 / Fold change vs veh, DNAJC13 / RFU, GNAQ / Fold change vs veh, GNAQ / RFU, CDK5R1 / Fold change vs veh, CDK5R1 / RFU, ZRANB3 / Fold change vs veh, ZRANB3 / RFU, CUL4A / Fold change vs veh, CUL4A / RFU, CCNY / Fold change vs veh, CCNY / RFU, UFL1 / Fold change vs veh, UFL1 / RFU, COG3 / Fold change vs veh, COG3 / RFU, DIAPH2 / Fold change vs veh, DIAPH2 / RFU, SKA2 / Fold change vs veh, SKA2 / RFU, AFF3 / Fold change vs veh, AFF3 / RFU, LMF1 / Fold change vs veh, LMF1 / RFU, IPO11 / Fold change vs veh, IPO11 / RFU, DFFB / Fold change vs veh, DFFB / RFU, FOXP1 / Fold change vs veh, FOXP1 / RFU, CARD8 / Fold change vs veh, CARD8 / RFU, STRN3 / Fold change vs veh, STRN3 / RFU, ADK / Fold change vs veh, ADK / RFU, RASSF2 / Fold change vs veh, RASSF2 / RFU, WIPF1 / Fold change vs veh, WIPF1 / RFU, LARP1B / Fold change vs veh, LARP1B / RFU, RASA1 / Fold change vs veh, RASA1 / RFU, RB1 / Fold change vs veh, RB1 / RFU, PPFIA1 / Fold change vs veh, PPFIA1 / RFU, MAT2A / Fold change vs veh, MAT2A / RFU, CCT5 / Fold change vs veh, CCT5 / RFU, WDR92 / Fold change vs veh, WDR92 / RFU, CUX1 / Fold change vs veh, CUX1 / RFU, TTC7A / Fold change vs veh, TTC7A / RFU, TMEM135 / Fold change vs veh, TMEM135 / RFU, DEPTOR / Fold change vs veh, DEPTOR / RFU, CPM / Fold change vs veh, CPM / RFU, DNAJB6 / Fold change vs veh, DNAJB6 / RFU, CACNA2D3 / Fold change vs veh, CACNA2D3 / RFU, DTX4 / Fold change vs veh, DTX4 / RFU, TFCP2 / Fold change vs veh, TFCP2 / RFU, GMCL1 /// GMCL1P1 / Fold change vs veh, GMCL1 /// GMCL1P1 / RFU, AEBP2 / Fold change vs veh, AEBP2 / RFU, SNHG1 /// SNORD22 /// SNORD25 /// SNORD26 /// SNORD27 /// SNORD28 /// SNORD29 /// SNORD31 / Fold change vs veh, SNHG1 /// SNORD22 /// SNORD25 /// SNORD26 /// SNORD27 /// SNORD28 /// SNORD29 /// SNORD31 / Fold change (Aza/veh), C12orf56 (ProbeSet 11735607_a_at) / Fold change (ACY-1035/veh), C12orf56 (ProbeSet 11735607_a_at) / Fold change (Aza/veh), FGFR1OP (ProbeSet 11751329_s_at) / Fold change (ACY-1035/veh), FGFR1OP (ProbeSet 11751329_s_at) / Fold change (Aza/veh), VPS36 (ProbeSet 11739960_a_at) / Fold change (ACY-1035/veh), VPS36 (ProbeSet 11739960_a_at) / RFU SYPL1 (11715823_x_at) / Fold change /veh SYPL1 (11715823_x_at) / RFU IGFBP7 (11715501_s_at) / Fold change /veh IGFBP7 (11715501_s_at) / RFU REEP3 (11722064_at) / Fold change /veh REEP3 (11722064_at) / RFU IGLL1 (11728026_x_at) / Fold change /veh IGLL1 (11728026_x_at): dose or concentration left out as unconfirmed
Settings: ProbeSet 11748335_a_at; LIST B

SMILES: Nc1ccc(-c2cccs2)cc1NC(=O)c1ccc2c(c1)cc(C1CC1)n2CCN1CCOCC1 [ACY-1035]
- RFU, SLMO2: 145.26 RFU
